In data set [1] the test system is Rattus norvegicus. Nature of the data set: Toxicity in Sprague-Dawley rat at 10 mg/kg/day, po. In kind it is organism-based. Also noted: route oral. The note with it: in vivo.
In data set [2] the test system is Rattus norvegicus. The experiment in a line: Estrogenic activity in Sprague-Dawley rat at 10 mg/kg/day, po. Also noted: route oral. In kind it is ADME, organism-based. The note with it: in vivo.
Data set [3] concerns Rattus norvegicus. Nature of the data set: Toxicity in Sprague-Dawley rat at 10 mg/kg/day, po administered for 16 days. The note with it: in vivo, 384 h. Format: organism-based. Also noted: route oral.
The test system of data set [4] is Rattus norvegicus. The experiment in a line: Toxicity in Sprague-Dawley rat at 10 mg/kg/day, po administered for 4 days. Format: organism-based. Also noted: route oral. The note with it: in vivo, 96 h.
The subject of data set [5] is Rattus norvegicus. The experiment in a line: Toxicity in Sprague-Dawley rat at 10 mg/kg/day, po administered for 10 days. Also noted: route oral. The note with it: in vivo, 240 h. Format: organism-based.
A short description of data set [6]: 1-Octanol-water partition coefficient, log P of the compound by UV spectrophotometer. Format: physicochemical.

Where only a bound is given, the exact number is not on record here.

Consider 22 compounds from ChEMBL document CHEMBL3243968, “Effects of molecular modification on hypocholesteremic activity of 1,3-bis(substituted phenoxy)-2-propanones and related derivatives” (J Med Chem, 1978).

Consider `CC(=O)COc1ccc(C)cc1`, for which the Activity entry with Rattus norvegicus [1] and with Rattus norvegicus [2] was “Non-toxic” each time.
As to `CC(=O)COc1ccc([N+](=O)[O-])cc1`, the Activity entry with Rattus norvegicus [1] and with Rattus norvegicus [2] was “Non-toxic” each time.
In the case of `O=C(COc1ccc(Cl)c2ccccc12)COc1ccc(Cl)c2ccccc12`, the Activity entry with Rattus norvegicus [1] and in the data set on Rattus norvegicus [2] was “Non-toxic” throughout.
As for `O=C(COc1ccc(-c2ccccc2)cc1)COc1ccc(-c2ccccc2)cc1`, the Activity result with Rattus norvegicus [1] and in the data set with Rattus norvegicus [2] was “Non-toxic” in each case.
`COc1cccc(OCC(=O)COc2cccc(OC)c2)c1`: the Activity entry in the data set on Rattus norvegicus [1] and in the data set on Rattus norvegicus [2] was “Non-toxic” throughout.
Regarding `O=C(COc1ccc2c(c1)CCC2)COc1ccc2c(c1)CCC2`, the Activity entry in the data set with Rattus norvegicus [1] and with Rattus norvegicus [2] was “Non-toxic” in each case.
Consider `CCCCCCCCCCCCCCC(=O)COc1ccc(C)cc1`, for which the Activity entry with Rattus norvegicus [1] and in the data set with Rattus norvegicus [2] was “Non-toxic” throughout.
Turning to `CCCCCCCCCCCCCCCCCCOCC(=O)COc1ccc(C)cc1`, the Activity result in the data set with Rattus norvegicus [1] and with Rattus norvegicus [2] was “Non-toxic” in each case.
Turning to `Cc1ccccc1OCC(=O)COC(=O)c1ccc(Cl)cc1`, the Activity entry in the data set with Rattus norvegicus [1] and with Rattus norvegicus [2] was “Non-toxic” in each case.
With `O=C(COc1ccc([N+](=O)[O-])cc1)COc1ccc([N+](=O)[O-])cc1`, the Activity result in the data set on Rattus norvegicus [1] and in the data set with Rattus norvegicus [2] was “Non-toxic” each time.
On to `O=C(CCl)COc1ccc([N+](=O)[O-])cc1`, for which the Activity result is recorded as “Toxic” with Rattus norvegicus [3], “Non-toxic” with Rattus norvegicus [2], “Toxic” in the data set with Rattus norvegicus [4] and “Toxic” in the data set with Rattus norvegicus [5].
For the compound `O=C(CCl)COc1cccc2ccccc12`, the Activity entry with Rattus norvegicus [1] and in the data set on Rattus norvegicus [2] was “Non-toxic” throughout.
`CCCCCOCC(=O)COCCCCC`: the Activity result in the data set on Rattus norvegicus [1] and in the data set with Rattus norvegicus [2] was “Non-toxic” in each case.
For `CCOC(=O)CC(=O)COc1ccc(C)cc1`, the Activity entry with Rattus norvegicus [1] and in the data set on Rattus norvegicus [2] was “Non-toxic” throughout.
Take `Cc1ccc(OCC2CO2)cc1` (stereo unspecified): in data set [6], the logP came to 2.69. Also, the Activity entry in the data set with Rattus norvegicus [1] and in the data set on Rattus norvegicus [2] was “Non-toxic” throughout.
`CCOC(COc1cc(C)c(C)cc1Cl)(COc1cc(C)c(C)cc1Cl)OCC`: the log partition coefficient (logP) in data set [6] was 2.69. For the same compound, the Activity entry with Rattus norvegicus [1] and in the data set with Rattus norvegicus [2] was “Non-toxic” each time.
Take `Cc1ccc(OC(C)C(=O)C(C)Oc2ccc(C)cc2)cc1` (stereo unspecified): the Activity entry with Rattus norvegicus [1] and with Rattus norvegicus [2] was “Non-toxic” throughout.
`Cc1ccc(OCC(=O)CO)cc1`: the Activity result in the data set with Rattus norvegicus [1] and in the data set with Rattus norvegicus [2] was “Non-toxic” in each case.
As to `CCCCCCCCCCCCC(OC(C)=O)S(C)(=O)=O` (stereo unspecified), the Activity entry with Rattus norvegicus [1] and with Rattus norvegicus [2] was “Non-toxic” in each case.
In turn, `O=C(COc1ccccc1)COc1ccccc1` yielded a logP in data set [6] of less than 2.69.
On the same count and under the same terms, the same measure for `COc1ccccc1OCC(=O)COc1ccccc1OC`: less than 2.69.
With `CCOC(=O)C(C)(C)Oc1ccc(Cl)cc1` [CLOFIBRATE], the Activity result in the data set on Rattus norvegicus [1] and in the data set on Rattus norvegicus [2] was “Non-toxic” each time.
